The source of these data is ChEMBL document CHEMBL1201862, “PubChem BioAssay data set” (2004).

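Following 48 hours of exposure in 96-well plates, responses at five concentrations were used to interpolate endpoints linearly. Abbreviation: GI50, concentration required for 50% inhibition of growth.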 Activity calls are given as the source filed them. Cut-off read from the data, not from the text of the source: active = GI50 up to about 1.1 µM and inactive = higher.

Some test systems named below: HOP-62; PC-3; MDA-MB-435; RPMI-8226; LOX IMVI; SF-539; CCRF-CEM; SF-268; KM12; NCI-H460; SK-MEL-5; DU-145; EKVX; A549; ACHN; SNB-19; MDA-MB-231; A498; SK-OV-3.
What all share (assay): NCI-60 cell line screen, 48 h

Take `COc1cc(OC)c(C2c3cc4c(cc3OC(N3CCOCC3)C2C)OCO4)c(OC)c1` (stereo not drawn): the GI50 in the test on HOP-62 is > 100 µM (inactive); in the test with PC-3 it was 42.3 µM (inactive); in the test with MDA-MB-435, 38.7 µM (inactive); in the test with RPMI-8226 it was 20.2 µM (inactive); in the test on LOX IMVI, 23.2 µM (inactive); with SF-539, 12.3 µM (inactive). Also, the GI50 in the test on CCRF-CEM was 33.8 µM (inactive); in the test with SF-268 it was 20.5 µM (inactive); with KM12, 24.5 µM (inactive); with NCI-H460, 16.4 µM (inactive); in the test on SK-MEL-5, 47 µM (inactive); with DU-145 it was 21.5 µM (inactive). Moreover, the GI50 in the test on EKVX is 80.5 µM (inactive); in the test with A549, 45.9 µM (inactive); with ACHN, 12.3 µM (inactive); with SNB-19, 28.7 µM (inactive).

For the molecule `CSCCCS/C1=C/CCCCCCCCCC1`, the GI50 with HOP-62, in the test on MDA-MB-231, with PC-3, in the test with MDA-MB-435, in the test on RPMI-8226 and with LOX IMVI was > 100 µM (inactive) throughout. For the same molecule, the GI50 in the test with SF-539, in the test with SF-268, in the test on KM12, in the test with NCI-H460, in the test on A498 and in the test with SK-MEL-5 was > 100 µM (inactive) each time. Further, the GI50 in the test with SK-OV-3, in the test on DU-145, in the test on EKVX, in the test on A549, in the test with ACHN and in the test on SNB-19 was > 100 µM (inactive) throughout.

As for `Cn1ccnc1S/C(=C\C=C(C#N)C#N)c1ccc(Cl)cc1`, the GI50 with HOP-62 is 4.17 µM (inactive); in the test on PC-3 it was 1.6 µM (inactive); with MDA-MB-435 it was 0.951 µM (active); with SF-539 it was 1.21 µM (inactive); with CCRF-CEM, 0.126 µM (active); in the test with SF-268 it was 1.84 µM (inactive). For the same molecule, the GI50 is 2.06 µM (inactive) in the test with KM12; 7.33 µM (inactive) in the test on NCI-H460; 1.27 µM (inactive) with A498; 1.13 µM (inactive) in the test with SK-MEL-5; 8.07 µM (inactive) with SK-OV-3; 6.04 µM (inactive) in the test on DU-145. For the same molecule, the GI50 was 7.89 µM (inactive) with EKVX, 6.27 µM (inactive) in the test on A549, 0.693 µM (active) in the test with ACHN and 3.48 µM (inactive) with SNB-19.

In the case of `CCOc1ccccc1/N=C(/NC(=O)CC)SC`, the GI50 in the test with HOP-62 is > 10 µM (inactive); in the test on RPMI-8226, 95.9 µM (inactive); with LOX IMVI it was > 10 µM (inactive); in the test with SF-539, > 10 µM (inactive); with CCRF-CEM, 64.6 µM (inactive); in the test with SF-268, > 10 µM (inactive). Moreover, the GI50 in the test with KM12, in the test with NCI-H460, in the test on A498, in the test with SK-MEL-5, in the test with SK-OV-3 and in the test on EKVX was > 10 µM (inactive) each time. In addition, the GI50 in the test with A549, with ACHN and in the test with SNB-19 was > 10 µM (inactive) throughout.

For the molecule `CC(C)C(NCc1c(O)ccc2c(-c3ccccc3)cc(=O)oc12)C(=O)O` (stereo not drawn), the GI50 in the test on HOP-62, with MDA-MB-231, in the test on PC-3, in the test with MDA-MB-435, in the test with RPMI-8226 and in the test with LOX IMVI was > 100 µM (inactive) each time. Moreover, the GI50 in the test on SF-539, in the test with CCRF-CEM, with SF-268, in the test on KM12, with NCI-H460 and with SK-MEL-5 was > 100 µM (inactive) in each case. Moreover, the GI50 with SK-OV-3, with DU-145, in the test with EKVX, in the test on A549, with ACHN and with SNB-19 was > 100 µM (inactive) throughout.
